Laboratory results published in ChEMBL document CHEMBL4020754, “Isolation of the antibiotic pseudopyronine B and SAR evaluation of C3/C6 alkyl analogs” (Bioorg Med Chem Lett, 2017).
≈ marks a conversion by molar mass, not a printed value.

Columns and labels:
Format in all cases: functional
Staphylococcus aureus = assay: Antibacterial activity against Staphylococcus aureus ATCC 29213 measured after 24 hrs; conditions: ATCC 29213, 24 h
Escherichia coli = assay: Antibacterial activity against Escherichia coli ATCC 15022 measured after 24 hrs; conditions: ATCC 15022, 24 h
Bacillus subtilis = assay: Antibacterial activity against Bacillus subtilis ATCC 11774 measured after 24 hrs; conditions: ATCC 11774, 24 h
Pseudomonas aeruginosa = assay: Antibacterial activity against Pseudomonas aeruginosa ATCC 9027 measured after 24 hrs; conditions: ATCC 9027, 24 h

Row | SMILES | IC50 (Staphylococcus aureus) | IC50 (Escherichia coli) | IC50 (Bacillus subtilis) | IC50 (Pseudomonas aeruginosa)
1 | CCCCCC(=O)c1c(O)cc(CCCCC)oc1=O | 3.8 µg/mL (≈ 13.6 µM) | > 1000 µg/mL | 21 µg/mL (≈ 74.9 µM) | > 1000 µg/mL
2 | CCCc1c(O)cc(CC)oc1=O | 244 µg/mL (≈ 1340 µM) | 278 µg/mL (≈ 1530 µM) | 203 µg/mL (≈ 1110 µM) | > 1000 µg/mL
3 | CCCC(=O)c1c(O)cc(CCC)oc1=O | 46 µg/mL (≈ 205 µM) | 248 µg/mL (≈ 1110 µM) | 1000 µg/mL (≈ 4460 µM) | > 1000 µg/mL
4 | CCCCCc1c(O)cc(CCCC)oc1=O | 4.6 µg/mL (≈ 19.3 µM) | > 1000 µg/mL | 23 µg/mL (≈ 96.5 µM) | > 1000 µg/mL
5 | CCc1c(O)cc(C)oc1=O | > 1000 µg/mL | 300 µg/mL (≈ 1950 µM) | > 1000 µg/mL | > 1000 µg/mL
6 | CCCCC(=O)c1c(O)cc(CCCC)oc1=O | 24 µg/mL (≈ 95.1 µM) | 223 µg/mL (≈ 884 µM) | 227 µg/mL (≈ 900 µM) | > 1000 µg/mL
7 | CCCCCCC(=O)c1c(O)cc(CCCCCC)oc1=O | 1.5 µg/mL (≈ 4.86 µM) | > 1000 µg/mL | 3.5 µg/mL (≈ 11.3 µM) | > 1000 µg/mL
8 | CCCCc1c(O)cc(CCC)oc1=O | 33 µg/mL (≈ 157 µM) | > 1000 µg/mL | 46 µg/mL (≈ 219 µM) | > 1000 µg/mL
9 | CCCCCCCC(=O)c1c(O)cc(CCCCCCC)oc1=O | 48 µg/mL (≈ 143 µM) | > 1000 µg/mL | 27 µg/mL (≈ 80.2 µM) | > 1000 µg/mL
10 | CCCCCCCCC(=O)c1c(O)cc(CCCCCCCC)oc1=O | > 1000 µg/mL | > 1000 µg/mL | > 1000 µg/mL | > 1000 µg/mL
11 | CCC(=O)c1c(O)cc(CC)oc1=O | 116 µg/mL (≈ 591 µM) | 257 µg/mL (≈ 1310 µM) | > 1000 µg/mL | > 1000 µg/mL

Other lines, results leading:

Row | IC50 (Staphylococcus aureus) | IC50 (Escherichia coli) | IC50 (Bacillus subtilis) | IC50 (Pseudomonas aeruginosa) | SMILES
12 | > 1000 µg/mL | > 1000 µg/mL | 24 µg/mL (≈ 74.4 µM) | > 1000 µg/mL | CCCCCCCCc1c(O)cc(CCCCCCC)oc1=O
13 | 0.04 µg/mL (≈ 0.136 µM) | > 1000 µg/mL | 0.7 µg/mL (≈ 2.38 µM) | > 1000 µg/mL | CCCCCCCc1c(O)cc(CCCCCC)oc1=O
14 | 0.1 µg/mL (≈ 0.34 µM) | > 1000 µg/mL | 0.3 µg/mL (≈ 1.02 µM) | > 1000 µg/mL | CCCCCCCc1cc(O)c(CCCCCC)c(=O)o1 [PSEUDOPYRONINES B]
15 | > 1000 µg/mL | > 1000 µg/mL | > 1000 µg/mL | > 1000 µg/mL | CCCCCCCCCc1c(O)cc(CCCCCCCC)oc1=O
16 | 2.4 µg/mL (≈ 9.01 µM) | > 1000 µg/mL | 3.3 µg/mL (≈ 12.4 µM) | > 1000 µg/mL | CCCCCCc1c(O)cc(CCCCC)oc1=O
